# Laboratory results as given in US20130058977A1, “COMPOSITIONS AND METHODS RELATED TO INDUCED TOLEROGENIC DENDRITIC CELLS EXTERNALLY LOADED WITH MHC CLASS I-RESTRICTED EPITOPES” (Selecta Biosciences, Inc., priority 2011, published 2013).
# Test system: TCR transgenic OTI cells
# Experiment: External loading of MHC Class I-restricted epitopes onto itDCs, read out as Phospho-Zap-70 in OTI cells
# Format: cell-based
# Details: dendritic cells externally loaded on ice for 30 minutes; mixed with OTI cells for 30 min at 37 C; pZap70 staining
# Procedure: Dendritic cells were externally loaded on ice for 30 minutes with MHC Class I-restricted peptides from Ovalbumin recognized by TCR transgenic OTI cells. DC were washed and mixed with OTI cells for 30 min in complete media at 37 C, 5% CO2. Cells were stained with conjugated antibodies specifically recognizing TCR. After fixation and permeabilization with paraformaldehyde and methanol, cells were labelled with monoclonal antibodies specific for the phosphorylated (activated) form of the Zeta-chain-associated protein kinase 70 (Phospho-Zap-70). Expression of pZap70 is directly proportional to the amount of stimulatory signal delivered through the TCR to T cells.
substance,measurement,value
SINFEKL [MHC Class I-restricted peptide from Ovalbumin recognized by TCR transgenic OTI cells],loading of a MHC Class I-restricted epitope onto itDCs,successful loading
